Marks after values point to notes of the source that are not given here.
Columns and labels:
[1] = target: T1, TRPV1 (VR1) (antagonist effect) (Homo sapiens, UniProt Q8NER1); experiment: TRPV1 antagonist functional assay (intracellular Ca2+, CHO cells); format: cell-based; conditions: CHO; 100 µM; not published before; read-out: % Inhibition of control specific binding (functional, antagonist effect)
T1 construct: host or cells: CHO cells
Experimental: (§1) Binding studies were carried out commercially in Eurofins Laboratories (Poitiers, France or New Taipei City, Taiwan).

[2] = system: neuromuscular strength in mice; design: method as in PMID 34074008; conditions: single administration 30 mg/kg; cited from earlier work
Na^+ channel (site 2) = system: Na^+ channel (site 2); design: method as in PMID 26052884; conditions: 100 µM; cited from earlier work
CYP3A4 = target: T2, CYP3A4 (Homo sapiens, UniProt P08684); design: method as in PMID 26052884; conditions: 10 µM; cited from earlier work
T2 construct: purchased Promega, Madison, WI, USA
T2 sequence (P08684 whole entry): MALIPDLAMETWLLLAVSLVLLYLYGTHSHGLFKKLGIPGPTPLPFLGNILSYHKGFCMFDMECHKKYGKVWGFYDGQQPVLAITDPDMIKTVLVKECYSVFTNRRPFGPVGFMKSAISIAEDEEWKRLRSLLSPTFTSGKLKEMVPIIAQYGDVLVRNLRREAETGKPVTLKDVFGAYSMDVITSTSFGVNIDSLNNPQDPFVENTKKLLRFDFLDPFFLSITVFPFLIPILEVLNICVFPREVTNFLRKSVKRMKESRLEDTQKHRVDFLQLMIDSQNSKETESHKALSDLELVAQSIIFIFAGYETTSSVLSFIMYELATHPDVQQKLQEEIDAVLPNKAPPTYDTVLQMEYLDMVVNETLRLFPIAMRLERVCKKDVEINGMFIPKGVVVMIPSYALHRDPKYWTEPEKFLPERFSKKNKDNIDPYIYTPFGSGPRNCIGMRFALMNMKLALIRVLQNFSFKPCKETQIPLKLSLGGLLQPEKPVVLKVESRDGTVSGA

CYP2D6 = target: T3, CYP2D6 (Homo sapiens, UniProt P10635); design: method as in PMID 30247871; conditions: cited from earlier work
T3 construct: purchased Promega, Madison, WI, USA
T3 sequence (P10635 whole entry): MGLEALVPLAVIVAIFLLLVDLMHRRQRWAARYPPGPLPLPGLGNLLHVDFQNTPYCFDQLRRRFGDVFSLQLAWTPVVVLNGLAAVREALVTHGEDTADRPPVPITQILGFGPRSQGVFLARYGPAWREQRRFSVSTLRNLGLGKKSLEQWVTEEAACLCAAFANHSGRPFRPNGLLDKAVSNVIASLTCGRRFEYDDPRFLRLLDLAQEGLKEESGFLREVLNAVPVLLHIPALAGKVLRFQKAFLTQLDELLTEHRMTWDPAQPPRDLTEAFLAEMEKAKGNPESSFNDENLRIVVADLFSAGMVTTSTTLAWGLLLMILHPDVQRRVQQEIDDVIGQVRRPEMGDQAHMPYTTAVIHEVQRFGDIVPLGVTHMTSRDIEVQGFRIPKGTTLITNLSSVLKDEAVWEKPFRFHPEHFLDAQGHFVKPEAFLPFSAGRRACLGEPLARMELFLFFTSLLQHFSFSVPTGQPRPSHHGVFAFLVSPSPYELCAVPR

[3] = system: seizure susceptibility in mice; design: method as in PMID 28412310; conditions: 100 mg/kg; cited from earlier work
[4] = target: GABAA (α1,β2,γ2) (agonist radioligand) (Homo sapiens, UniProt P14867+P47870); design: method as in PMID 30247871; conditions: 100 µM; cited from earlier work
[5] = target: T4, Calcium Cav2.2 channel (antagonist radioligand) (Rattus norvegicus, UniProt Q02294); design: method as in PMID 26052884; conditions: 100 µM; cited from earlier work
T4 construct: rat cerebral cortex; tissue Eurofins Laboratories; host or cells: rat cerebral cortex
T4 sequence (Q02294 whole entry): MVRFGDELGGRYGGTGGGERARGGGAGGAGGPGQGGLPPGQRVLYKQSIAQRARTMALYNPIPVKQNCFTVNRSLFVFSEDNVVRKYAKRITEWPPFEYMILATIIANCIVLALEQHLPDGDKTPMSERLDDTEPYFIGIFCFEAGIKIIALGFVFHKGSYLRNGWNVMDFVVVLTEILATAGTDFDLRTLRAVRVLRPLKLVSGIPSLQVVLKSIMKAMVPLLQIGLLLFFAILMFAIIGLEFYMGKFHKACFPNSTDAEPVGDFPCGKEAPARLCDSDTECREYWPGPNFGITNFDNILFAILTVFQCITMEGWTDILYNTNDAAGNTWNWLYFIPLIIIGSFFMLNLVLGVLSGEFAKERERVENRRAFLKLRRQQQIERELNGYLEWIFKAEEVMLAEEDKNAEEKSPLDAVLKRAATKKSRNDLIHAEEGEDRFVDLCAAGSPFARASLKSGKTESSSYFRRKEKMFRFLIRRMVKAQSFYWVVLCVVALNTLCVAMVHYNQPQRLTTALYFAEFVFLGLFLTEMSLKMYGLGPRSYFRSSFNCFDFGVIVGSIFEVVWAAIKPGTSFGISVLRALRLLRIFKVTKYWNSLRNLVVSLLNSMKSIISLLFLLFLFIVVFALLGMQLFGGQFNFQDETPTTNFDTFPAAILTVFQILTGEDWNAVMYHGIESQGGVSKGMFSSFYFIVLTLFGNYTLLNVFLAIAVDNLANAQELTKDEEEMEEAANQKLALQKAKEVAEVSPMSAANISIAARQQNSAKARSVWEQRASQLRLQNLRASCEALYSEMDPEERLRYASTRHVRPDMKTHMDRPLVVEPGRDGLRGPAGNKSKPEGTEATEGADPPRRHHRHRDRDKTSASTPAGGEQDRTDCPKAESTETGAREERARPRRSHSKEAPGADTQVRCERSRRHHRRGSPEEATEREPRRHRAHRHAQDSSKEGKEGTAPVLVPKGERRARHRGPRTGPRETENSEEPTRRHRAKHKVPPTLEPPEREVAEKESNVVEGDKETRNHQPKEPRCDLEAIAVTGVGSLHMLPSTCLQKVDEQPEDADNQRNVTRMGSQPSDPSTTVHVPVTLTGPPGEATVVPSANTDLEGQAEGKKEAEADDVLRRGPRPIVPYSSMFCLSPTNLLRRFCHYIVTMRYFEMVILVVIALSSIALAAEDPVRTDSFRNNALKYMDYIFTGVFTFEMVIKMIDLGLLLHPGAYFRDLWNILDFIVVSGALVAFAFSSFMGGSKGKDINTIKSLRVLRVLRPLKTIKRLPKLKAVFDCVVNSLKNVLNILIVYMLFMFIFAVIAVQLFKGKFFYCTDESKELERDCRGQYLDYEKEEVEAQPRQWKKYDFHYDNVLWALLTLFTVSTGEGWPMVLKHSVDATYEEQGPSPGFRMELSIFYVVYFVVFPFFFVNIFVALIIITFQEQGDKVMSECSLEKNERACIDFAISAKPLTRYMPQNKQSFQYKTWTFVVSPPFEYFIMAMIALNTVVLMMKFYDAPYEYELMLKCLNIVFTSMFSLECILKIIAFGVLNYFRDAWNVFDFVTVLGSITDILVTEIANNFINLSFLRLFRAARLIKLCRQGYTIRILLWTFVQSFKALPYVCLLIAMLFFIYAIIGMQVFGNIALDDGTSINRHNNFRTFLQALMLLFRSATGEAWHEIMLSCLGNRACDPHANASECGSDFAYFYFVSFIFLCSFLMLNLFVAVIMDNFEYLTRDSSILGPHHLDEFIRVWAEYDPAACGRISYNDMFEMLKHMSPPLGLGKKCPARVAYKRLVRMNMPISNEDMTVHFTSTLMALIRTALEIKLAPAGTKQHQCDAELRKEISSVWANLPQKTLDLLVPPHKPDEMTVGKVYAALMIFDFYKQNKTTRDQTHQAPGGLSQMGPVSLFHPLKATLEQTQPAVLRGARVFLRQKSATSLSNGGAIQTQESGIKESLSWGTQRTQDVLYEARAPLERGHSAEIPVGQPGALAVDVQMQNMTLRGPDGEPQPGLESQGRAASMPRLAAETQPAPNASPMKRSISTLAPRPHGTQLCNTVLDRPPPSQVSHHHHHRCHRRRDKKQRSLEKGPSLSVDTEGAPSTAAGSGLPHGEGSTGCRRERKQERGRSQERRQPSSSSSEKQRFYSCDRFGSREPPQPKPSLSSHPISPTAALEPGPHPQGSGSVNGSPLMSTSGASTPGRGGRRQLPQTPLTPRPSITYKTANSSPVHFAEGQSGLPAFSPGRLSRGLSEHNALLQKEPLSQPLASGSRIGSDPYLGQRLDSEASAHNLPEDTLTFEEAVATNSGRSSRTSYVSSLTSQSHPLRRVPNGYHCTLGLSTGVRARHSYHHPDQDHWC

[6] = system: Calcium Cav1.2 channels (dihydropyridine site, antagonist radioligand); design: method as in PMID 26052884; conditions: 100 µM; cited from earlier work
[7] = system: Glutamate (AMPA, nonselective, antagonist radioligand, [3H] AMPA radioligand); design: method as in PMID 30247871; conditions: 100 µM; cited from earlier work
[8] = system: 6-Hz-induced psychomotor seizures in mice; conditions: i.p., cited from earlier work
[9] = system: Glutamate (NMDA, nonselective, antagonist radioligand, [3H] Ifenprodil radioligand); design: method as in PMID 30247871; conditions: 100 µM; cited from earlier work
[10] = system: motor performance in mice; conditions: i.p.; cited from earlier work
hERG potassium channel = target: T5, hERG potassium channel (Homo sapiens, UniProt Q12809); experiment: Radioligand binding, potassium channel (hERG); conditions: human, human recombinant HEK-293 cells expressing hERG, KA-11 value not published before, read-out: % Inhibition of Control Specific Binding
T5 construct: host or cells: HEK-293 cells
Experimental: Dysfunction of both sodium and calcium ion channels is known to be one of the crucial reasons behind the pathogenesis of seizures. Consequently, these ion channels are molecular targets for several clinically important ASDs such as lacosamide, lamotrigine, carbamazepine, oxcarbazepine and compounds currently under preclinical and clinical studies. Thus, for KA-228 and KA-232, we tested herein their binding profile toward the aforementioned ion channels at concentrations of 10 and 100 µM (Table 3). […] Apart from in vitro studies focused on explaining the mechanism of action, KA-232 was additionally tested for its interaction with the potassium channel (hERG) which is recognized as one of the most important ‘off-targets’ responsible for harmful arrhythmogenic activity. Thus, the interaction of potential drug candidates with hERG must be excluded at an early stage of development.
as §1

[11] = design: method as in PMID 26052884; conditions: cited from earlier work
[12] = system: tonic–clonic seizures in mice; conditions: i.p.; cited from earlier work
[13] = system: Calcium Cav1.2 channels (diltiazem site, antagonist radioligand); design: method as in PMID 30247871; conditions: 100 µM; cited from earlier work
hepatoma HepG2 = system: hepatoma HepG2; design: method as in PMID 30247871; conditions: 10 µM; cited from earlier work
[14] = system: Calcium Cav1.2 channel (verapamil site, antagonist radioligand); design: method as in PMID 30247871; conditions: 100 µM; cited from earlier work
[15] = design: method as in PMID 30247871; conditions: cited from earlier work
[16] = system: PTZ-induced clonic seizures in mice; conditions: i.p., cited from earlier work

T1 sequence (Q8NER1 whole entry): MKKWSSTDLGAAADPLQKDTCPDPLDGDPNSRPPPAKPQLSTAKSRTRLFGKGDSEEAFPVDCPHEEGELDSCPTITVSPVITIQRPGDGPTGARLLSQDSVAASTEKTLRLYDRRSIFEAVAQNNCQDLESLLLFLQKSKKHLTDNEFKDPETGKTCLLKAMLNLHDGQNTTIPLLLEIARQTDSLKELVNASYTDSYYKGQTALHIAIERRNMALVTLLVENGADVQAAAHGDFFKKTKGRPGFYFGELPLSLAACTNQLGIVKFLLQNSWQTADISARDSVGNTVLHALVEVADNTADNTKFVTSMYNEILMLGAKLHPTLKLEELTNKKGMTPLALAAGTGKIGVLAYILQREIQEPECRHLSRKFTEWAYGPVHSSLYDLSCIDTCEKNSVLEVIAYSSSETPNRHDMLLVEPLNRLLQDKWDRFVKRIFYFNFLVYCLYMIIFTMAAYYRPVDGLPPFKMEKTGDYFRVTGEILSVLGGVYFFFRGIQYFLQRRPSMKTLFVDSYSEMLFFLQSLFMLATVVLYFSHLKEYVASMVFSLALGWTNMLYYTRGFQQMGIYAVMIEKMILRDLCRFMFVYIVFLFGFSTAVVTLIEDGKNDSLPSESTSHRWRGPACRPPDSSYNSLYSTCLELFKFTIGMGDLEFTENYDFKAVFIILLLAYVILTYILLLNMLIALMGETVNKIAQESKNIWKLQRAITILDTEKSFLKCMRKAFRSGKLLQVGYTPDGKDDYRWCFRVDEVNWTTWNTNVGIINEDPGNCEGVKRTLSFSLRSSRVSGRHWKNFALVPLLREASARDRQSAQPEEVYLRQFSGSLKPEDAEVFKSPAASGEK

CC(C(=O)N1CCN(c2cccc(C(F)(F)F)c2)CC1)N1C(=O)CCC1=O (stereo not shown) [KA-11]
inhibition at 100 µM [1]: 33%
effect on muscle strength [2]: no statistically significant abnormalities
% Inhibition of Control Specific Binding (Na^+ channel (site 2)): 37.4 (100) * %
CYP3A4 activity (% of control ± SD) (CYP3A4): 99.21 ± 4.9 [6] % of control
CYP2D6 activity (% of control ± SD) (CYP2D6; 10 µM): 122.30 ± 2.02 [9] % of control
effect on CYP2D6 activity (CYP2D6; at 1 and 10 µM): slight induction
effect on thresholds for all studied endpoints (myoclonic twitch, generalized clonus, forelimb tonus) [3]: significant increase
% Inhibition of Control Specific Binding [4]: −28.1 (100) ^# %
% Inhibition of Control Specific Binding [5]: 13.9 (100) * %
% Inhibition of Control Specific Binding [6]: 64.2 (100) * %
% Inhibition of Control Specific Binding [7]: −2.9 (100) ^# %
ED50 6 Hz ± SD ([8]; 32 mA): 21.0 ± 32.19 mg/kg
TI (TD50/ED50), 6 Hz [8]: > 71.43
% Inhibition of Control Specific Binding [9]: 13.0 (100) ^# %
TD50 [10]: >1500 mg/kg
inhibition at 60 min, 100 µM (hERG potassium channel): 15%
Metabolic stability (% remaining after incubation with HLMs) [11]: 73.49 [6] %
ED50 MES ± SD [12]: 88.4 ± 34.16 mg/kg
TI (TD50/ED50), MES [12]: > 16.97
% Inhibition of Control Specific Binding [13]: 44.9 (100) ^# %
HepG2 viability (% of control ± SD) (hepatoma HepG2): 99.78 ± 2.18 [9] % of control
% Inhibition of Control Specific Binding [14]: 1.5 (100) ^# %
PAMPA Pe ± SD [15]: 27.1 ± 3.8 ^b [9] 10^−6 cm/s
ED50 PTZ ± SD ([16]; scPTZ): 59.9 ± 19.55 mg/kg
TI (TD50/ED50), PTZ [16]: > 25.04
